Assay results from patent US20230151014A1 (Repare Therapeutics Inc., priority 2020, published 2023).

Molecular target: T1, recombinant human Myt1 (Homo sapiens, UniProt Q99640)
T1 construct: full length PKMYT1 recombinant human protein expressed in insect cells
T1 sequence (Q99640 1-499): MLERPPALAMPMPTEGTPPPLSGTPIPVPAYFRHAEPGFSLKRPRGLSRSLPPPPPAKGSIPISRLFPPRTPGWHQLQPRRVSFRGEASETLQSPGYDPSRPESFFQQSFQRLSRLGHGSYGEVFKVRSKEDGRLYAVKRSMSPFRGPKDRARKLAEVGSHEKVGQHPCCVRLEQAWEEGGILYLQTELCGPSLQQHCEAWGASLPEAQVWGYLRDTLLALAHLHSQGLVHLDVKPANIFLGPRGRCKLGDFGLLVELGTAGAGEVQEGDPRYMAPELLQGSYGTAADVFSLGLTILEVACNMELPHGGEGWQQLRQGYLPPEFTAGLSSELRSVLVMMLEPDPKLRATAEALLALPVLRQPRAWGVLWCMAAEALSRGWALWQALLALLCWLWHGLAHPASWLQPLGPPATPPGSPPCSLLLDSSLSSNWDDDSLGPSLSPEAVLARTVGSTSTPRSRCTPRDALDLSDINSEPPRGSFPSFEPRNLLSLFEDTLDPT
Assay: Myt1 enzymatic assay (ADP-Glo kinase assay, IC50 and % max inhibition)
Type: biochemical
Details: recombinant human Myt1 18 nM, ATP 10 μM
Procedure: Detection of Myt1 kinase activity utilized a recombinant human Myt1 kinase assay measuring the hydrolysis of ATP using a commercially available ADP-Glo Assay (ADP-Glo™ Kinase Assay from Promega, 10 000 assays, #V9102). […] After this, 5 μL of compounds (diluted in reaction buffer to 0.5% DMSO) was added to the microplate and the plate was spun briefly and incubated at 22° C. for 15 minutes. Ultra-Pure Adenosine Triphosphate (ATP) solution (ADP-Glo kit from Promega) was diluted in reaction buffer and 5 μL was added to the microplate, spun down briefly and incubated for 60 minutes at 30° C. […] After the 60-minute incubation, 15 μL of ADP-Glo reagent was added and the plate was spun briefly and sealed and incubated in the dark for 40 minutes at 22° C. […] Luminescence was read using the Envision (250 ms integration). The IC50 and the % max inhibition were calculated for each inhibitor compound tested.

IC50 [µM] | SMILES
0.01 | COC(C)(C)C#Cc1cnc2c(C(N)=O)c(N)n(-c3c(C)ccc(O)c3C)c2n1 [Compound 238]
0.015 | Cc1ccc(O)c(C)c1-n1c(N)c(C(N)=O)c2ncc(C#CC(C)(C)O)nc21 [Compound 239]
0.024 | Cc1ccc(O)c(C)c1-n1c(N)c(C(N)=O)c2ncc(C#C[C@@H](C)O)nc21 [Compound 241]
0.016 | CCNC(=O)c1cnc2c(n1)c(C(N)=O)c(N)n2-c1c(C)ccc(O)c1C [Compound 244]
0.084 | CCN(CC)C(=O)c1cnc2c(n1)c(C(N)=O)c(N)n2-c1c(C)ccc(O)c1C [Compound 246]
< 0.01 | Cc1ccc(O)c(C)c1-n1c(N)c(C(N)=O)c2nc(-c3ccnnc3)cnc21 [Compound 250]
0.024 | Cc1ccc(O)c(C)c1-n1c(N)c(C(N)=O)c2nc(N3CC4(COC4)C3)cnc21 [Compound 253]
0.01 | Cc1ccc(O)c(C)c1-n1c(N)c(C(N)=O)c2nc(-c3nc4ccccc4n3C)cnc21 [Compound 254]
0.109 | Cc1ccc(O)c(C)c1-n1c(N)c(C(N)=O)c2nc(-c3nc(C)c(C)o3)cnc21 [Compound 255]
0.043 | C=Cc1cnc2c(C(N)=O)c(N)n(-c3c(C)ccc(O)c3C)c2n1 [Compound 257, 6-amino-5-(3-hydroxy-2,6-dimethyl-phenyl)-3-vinyl-pyrrolo[2,3-b]pyrazine-7-carboxamide]
< 0.01 | C=Cc1cnc2c(n1)c(C(N)=O)c(N)n2-c1c(C)ccc(O)c1C [Compound 259]
0.027 | Cc1ccc(O)c(C)c1-n1c(N)c(C(N)=O)c2nc(OC3CC3)cnc21 [Compound 260, 6-amino-2-(cyclopropoxy)-5-(3-hydroxy-2,6-dimethyl-phenyl)pyrrolo[2,3-b]pyrazine-7-carboxamide]
< 0.01 | Cc1ccc(O)c(C)c1-n1c(N)c(C(N)=O)c2nc3c(nc21)CCCC3 [Compound 262]
0.016 | Cc1ccc(O)c(C)c1-n1c(N)c(C(N)=O)c2nc(C(F)F)cnc21 [Compound 263, 6-amino-2-(difluoromethyl)-5-(3-hydroxy-2,6-dimethyl-phenyl)pyrrolo[2,3-b]pyrazine-7-carboxamide]
0.25 | Cc1ccc(O)c(C)c1-n1c(N)c(C(N)=O)c2nc(C#CC3CCNC3)cnc21 (centres unmarked) [Compound 279]
0.08 | Cc1ccc(O)c(C)c1-n1c(N)c(C(N)=O)c2nc(CCC3CCNC3)cnc21 (centres unmarked) [Compound 280]
0.011 | Cc1cnc2c(n1)c(C(N)=O)c(N)n2-c1c(C)ccc(O)c1C [Compound 285]
< 0.01 | Cc1ccc(O)c(C)c1-n1c(N)c(C(N)=O)c2cc(C#N)cnc21 [Compound 312]
< 0.01 | Cc1ccc(O)c(C)c1-n1c(N)c(C(N)=O)c2c(C)c(Cl)cnc21 [Compound 313]
< 0.01 | Cc1ccc(O)c(C)c1-n1c(N)c(C(N)=O)c2c(Cl)c(Cl)cnc21 [Compound 316]
< 0.01 | Cc1ccc(O)c(C)c1-n1c(N)c(C(N)=O)c2cc(I)cnc21 [Compound 319]
< 0.01 | Cc1ccc(O)c(C)c1-n1c(N)c(C(N)=O)c2cccnc21 [Compound 328]

Second part, the compound before the results:

SMILES | IC50 [µM]
Cc1ccc(O)c(C)c1-n1c(N)c(C(N)=O)c2ncc(C#CC3(C)CCCO3)nc21 (centres unmarked) [Compound 235] | 0.013
Cc1ccc(O)c(C)c1-n1c(N)c(C(N)=O)c2ncc(C#CC3(O)CCOC3)nc21 (centres unmarked) [Compound 236] | 0.016
Cc1ccc(O)c(C)c1-n1c(N)c(C(N)=O)c2ncc(C#CCC3(O)CCOCC3)nc21 [Compound 237] | 0.019
COCCOCC#Cc1cnc2c(C(N)=O)c(N)n(-c3c(C)ccc(O)c3C)c2n1 [Compound 240] | 0.191
Cc1ccc(O)c(C)c1-n1c(N)c(C(N)=O)c2ncc(C#CC3(O)CCC(F)(F)CC3)nc21 [Compound 242, 6-amino-3-[2-(4,4-difluoro-1-hydroxy-cyclohexyl)ethynyl]-5-(3-hydroxy-2,6-dimethyl-phenyl)pyrrolo[2,3-b]pyrazine-7-carboxamide] | < 0.01
Cc1ccc(O)c(C)c1-n1c(N)c(C(N)=O)c2nc(C(=O)Nc3cccnc3)cnc21 [Compound 243, 6-amino-5-(3-hydroxy-2,6-dimethyl-phenyl)-N2-(3-pyridyl)pyrrolo[2,3-b]pyrazine-2,7-dicarboxamide] | 0.069
Cc1ccc(O)c(C)c1-n1c(N)c(C(N)=O)c2nc(C(=O)NCc3ccccc3)cnc21 [Compound 245] | 0.011
Cc1ccc(O)c(C)c1-n1c(N)c(C(N)=O)c2nc(-c3cc4ccccc4n3C)cnc21 [Compound 247] | 0.017
Cc1ccc(O)c(C)c1-n1c(N)c(C(N)=O)c2nc(-c3nc4ccccc4s3)cnc21 [Compound 248] | < 0.01
Cc1ccc(O)c(C)c1-n1c(N)c(C(N)=O)c2nc(-c3nc4ccccc4o3)cnc21 [Compound 249] | 0.02
Cc1ccc(O)c(C)c1-n1c(N)c(C(N)=O)c2nc(C3CC3)c(C3CC3)nc21 [Compound 256] | 0.05
Cc1ccc(O)c(C)c1-n1c(N)c(C(N)=O)c2nc(-c3cccc(OC4CCOCC4)n3)cnc21 [Compound 258] | 3.13
Cc1ccc(O)c(C)c1-n1c(N)c(S(C)(=O)=O)c2nc(-c3cnccn3)cnc21 [Compound 278] | > 5
Cc1ccc(O)cc1-n1c(N)c(C(N)=O)c2nc(OCc3ccccc3)cnc21 [Compound 281] | 0.784
Cc1ccc(O)cc1-n1c(N)c(C(N)=O)c2nc(NCc3ccccc3)cnc21 [Compound 282] | 0.625
Cc1ccc(O)c(C)c1-n1c(N)c(C(N)=O)c2nc(C#CC(=O)Nc3ccc(F)cc3)cnc21 [Compound 283] | 0.032
Cc1ccc(O)cc1-n1c(N)c(C(N)=O)c2nc(OCc3cccnc3)cnc21 [Compound 284] | 0.238
Cc1ccc(O)c(Br)c1-n1c(N)c(C(N)=O)c2cc(Cl)cnc21 [Compound 289] | < 0.01
Cc1ccc(O)c(C)c1-n1c(N)c(C(N)=O)c2cc(-c3ccccn3)cnc21 [Compound 295] | < 0.01
Cc1ccc(O)c(C)c1-n1c(N)c(C(N)=O)c2cc(N3CCCC3=O)cnc21 [Compound 298] | < 0.01
Cc1c(O)ccc(Br)c1-n1c(N)c(C(N)=O)c2cc(Cl)cnc21 [Compound 301] | 0.013
Cc1ccc(O)c(C)c1-n1c(N)c(C(N)=O)c2cc(C3=CCOCC3)cnc21 [Compound 304] | < 0.01
Cc1ccc(O)c(C)c1-n1c(N)c(C(N)=O)c2cc(-c3nccs3)cnc21 [Compound 308] | < 0.01
Cc1ccc(O)c(C)c1-n1c(N)c(C(N)=O)c2cc(S(=O)(=O)C3CC3)cnc21 [Compound 311] | < 0.01
Cc1ccc(O)c(Cl)c1-n1c(N)c(C(N)=O)c2cc(Cl)cnc21 [Compound 327] | < 0.01
